# According to ChEMBL document CHEMBL3865793, “Non-specific binding sites help to explain mixed inhibition in mushroom tyrosinase activities” (Eur J Med Chem, 2016):
# Activity calls are given as the source filed them. The calls are words filed in the database; no cut-off is given here.
# Tests used:
# [1] = target: T1, Mushroom tyrosinase (Agaricus bisporus) (UniProt O42713+Q00024+C7FF04+C7FF05); assay: Activation of cresolase activity of mushroom tyrosinase assessed as inverse of activation constant after 15 mins using 4-[(4-Methylphenyl) azo]-phenol as substrate
# [2] = target: T1, Mushroom tyrosinase (Agaricus bisporus); assay: Mixed type activation of cresolase activity of mushroom tyrosinase at 5 to 10.5 uM using 4-[(4-Methylphenyl) azo]-phenol as substrate by Lineweaver-Burk plot analysis
# [3] = target: T1, Mushroom tyrosinase (Agaricus bisporus); assay: Activation of cresolase activity of mushroom tyrosinase at <= 10 uM after 15 mins using 4-[(4-Methylphenyl) azo]-phenol as substrate relative to untreated control
# [4] = target: T1, Mushroom tyrosinase (Agaricus bisporus); assay: Activation of cresolase activity of mushroom tyrosinase assessed as activation constant after 15 mins using 4-[(4-Methylphenyl) azo]-phenol as substrate
# [5] = target: T1, Mushroom tyrosinase (Agaricus bisporus); assay: Mixed type activation of cresolase activity of mushroom tyrosinase using 4-[(4-Methylphenyl) azo]-phenol as substrate by Dixon plot analysis
# [6] = target: T1, Mushroom tyrosinase (Agaricus bisporus); assay: Activation of cresolase activity of mushroom tyrosinase at >5 uM after 15 mins using 4-[(4-Methylphenyl) azo]-phenol as substrate
# [7] = target: T1, Mushroom tyrosinase (Agaricus bisporus); assay: Inhibition of cresolase activity of mushroom tyrosinase at 0 to 10.5 uM using 23 to 50.05 uM of 4-[(4-Methylphenyl) azo]-phenol as substrate
# [8] = target: T1, Mushroom tyrosinase (Agaricus bisporus); assay: Inhibition of cresolase activity of mushroom tyrosinase at <5 uM using 4-[(4-Methylphenyl) azo]-phenol as substrate
# [9] = target: T1, Mushroom tyrosinase (Agaricus bisporus); assay: Activation of cresolase activity of mushroom tyrosinase at <150 uM using 4-[(4-Methylphenyl) azo]-phenol as substrate measured after 15 mins by spectrophotometric method
# [10] = target: T1, Mushroom tyrosinase (Agaricus bisporus); assay: Inhibition of cresolase activity of mushroom tyrosinase at >150 uM using 4-[(4-Methylphenyl) azo]-phenol as substrate measured after 15 mins by spectrophotometric method
# Mushroom tyrosinase = Mushroom tyrosinase (Agaricus bisporus, UniProt O42713+Q00024+C7FF04+C7FF05); assay: Inhibition of cresolase activity of mushroom tyrosinase using 4-[(4-Methylphenyl) azo]-phenol as substrate measured after 15 mins by spectrophotometric method
# [11] = target: T1, Mushroom tyrosinase (Agaricus bisporus); assay: Activation of cresolase activity of mushroom tyrosinase assessed as dissociation constant for substrate after 15 mins using 4-[(4-Methylphenyl) azo]-phenol as substrate
# [12] = target: T1, Mushroom tyrosinase (Agaricus bisporus); assay: Activation of cresolase activity of mushroom tyrosinase at <= 150 uM after 15 mins using 4-[(4-Methylphenyl) azo]-phenol as substrate relative to untreated control
# [13] = target: T1, Mushroom tyrosinase (Agaricus bisporus); assay: Activation of cresolase activity of mushroom tyrosinase at 50 to 150 uM using 4-[(4-Methylphenyl) azo]-phenol as substrate by Lineweaver-Burk plot analysis
# [14] = target: T1, Mushroom tyrosinase (Agaricus bisporus); assay: Activation of cresolase activity of mushroom tyrosinase at 18 uM using 4-[(4-Methylphenyl) azo]-phenol as substrate by Dixon plot analysis
# [15] = target: T1, Mushroom tyrosinase (Agaricus bisporus); assay: Inhibition of cresolase activity of mushroom tyrosinase at 0 to 450 uM using 18 to 61 uM of 4-[(4-Methylphenyl) azo]-phenol as substrate
# O=C(O)/C=C/c1ccccc1 = assay: (§1) Activation of cresolase activity of mushroom tyrosinase assessed as Vmax after 15 mins using 4-[(4-Methylphenyl) azo]-phenol as substrate; details: Agaricus bisporus
# O=C(O)c1ccccc1C(=O)O = assay: as §1; details: Agaricus bisporus
# Sequence of Mushroom tyrosinase (Agaricus bisporus) (from UniProt O42713+Q00024+C7FF04+C7FF05) (C7FF05 whole entry, looked up): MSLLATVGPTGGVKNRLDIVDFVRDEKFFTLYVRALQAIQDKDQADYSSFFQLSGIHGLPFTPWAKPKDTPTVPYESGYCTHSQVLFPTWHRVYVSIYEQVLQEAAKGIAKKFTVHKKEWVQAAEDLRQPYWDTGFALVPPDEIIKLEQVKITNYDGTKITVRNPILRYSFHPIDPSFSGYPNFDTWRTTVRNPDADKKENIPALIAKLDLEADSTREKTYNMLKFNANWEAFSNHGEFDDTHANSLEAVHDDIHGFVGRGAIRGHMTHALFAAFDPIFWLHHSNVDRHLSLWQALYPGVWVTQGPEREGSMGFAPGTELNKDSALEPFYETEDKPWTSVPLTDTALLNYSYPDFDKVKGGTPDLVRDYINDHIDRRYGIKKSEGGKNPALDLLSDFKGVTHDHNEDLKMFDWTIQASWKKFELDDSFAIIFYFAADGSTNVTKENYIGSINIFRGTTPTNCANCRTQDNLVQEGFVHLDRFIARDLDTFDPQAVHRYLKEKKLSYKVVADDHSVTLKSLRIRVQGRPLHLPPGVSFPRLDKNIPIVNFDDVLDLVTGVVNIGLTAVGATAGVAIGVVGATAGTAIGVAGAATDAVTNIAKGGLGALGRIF
# Sequence of Mushroom tyrosinase (Agaricus bisporus) (from UniProt O42713+Q00024+C7FF04+C7FF05) (C7FF04 whole entry, looked up): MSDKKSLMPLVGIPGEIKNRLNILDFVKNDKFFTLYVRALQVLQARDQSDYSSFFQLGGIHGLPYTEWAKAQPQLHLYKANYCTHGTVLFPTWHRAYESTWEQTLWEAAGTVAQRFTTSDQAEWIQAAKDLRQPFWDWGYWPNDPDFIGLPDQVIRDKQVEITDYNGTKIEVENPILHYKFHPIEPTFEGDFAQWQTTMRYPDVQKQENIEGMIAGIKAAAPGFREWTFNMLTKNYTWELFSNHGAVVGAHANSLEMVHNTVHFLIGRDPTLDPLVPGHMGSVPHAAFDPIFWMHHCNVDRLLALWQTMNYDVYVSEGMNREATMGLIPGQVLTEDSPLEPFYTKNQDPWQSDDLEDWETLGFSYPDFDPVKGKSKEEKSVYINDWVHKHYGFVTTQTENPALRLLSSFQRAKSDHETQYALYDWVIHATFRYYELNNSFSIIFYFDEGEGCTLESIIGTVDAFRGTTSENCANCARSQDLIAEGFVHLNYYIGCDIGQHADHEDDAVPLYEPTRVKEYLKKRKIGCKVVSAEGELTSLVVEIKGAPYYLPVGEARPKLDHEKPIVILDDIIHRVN
# Sequence of Mushroom tyrosinase (Agaricus bisporus) (from UniProt O42713+Q00024+C7FF04+C7FF05) (Q00024 whole entry, looked up): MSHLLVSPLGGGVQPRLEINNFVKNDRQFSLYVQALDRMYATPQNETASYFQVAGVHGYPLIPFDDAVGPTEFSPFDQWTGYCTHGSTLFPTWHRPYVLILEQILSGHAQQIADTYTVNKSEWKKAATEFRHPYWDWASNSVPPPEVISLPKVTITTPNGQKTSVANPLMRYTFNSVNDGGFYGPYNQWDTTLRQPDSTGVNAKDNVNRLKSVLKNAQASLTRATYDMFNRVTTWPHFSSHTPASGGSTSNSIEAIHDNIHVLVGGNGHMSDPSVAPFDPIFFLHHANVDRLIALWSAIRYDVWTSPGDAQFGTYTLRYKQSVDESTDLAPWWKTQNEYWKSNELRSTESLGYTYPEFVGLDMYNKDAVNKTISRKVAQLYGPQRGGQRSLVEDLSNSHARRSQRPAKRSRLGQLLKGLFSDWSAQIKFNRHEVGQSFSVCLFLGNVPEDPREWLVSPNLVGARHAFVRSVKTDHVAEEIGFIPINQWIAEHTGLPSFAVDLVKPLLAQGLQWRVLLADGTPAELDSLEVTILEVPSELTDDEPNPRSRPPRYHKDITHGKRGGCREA
# Sequence of Mushroom tyrosinase (Agaricus bisporus) (from UniProt O42713+Q00024+C7FF04+C7FF05) (O42713 whole entry, looked up): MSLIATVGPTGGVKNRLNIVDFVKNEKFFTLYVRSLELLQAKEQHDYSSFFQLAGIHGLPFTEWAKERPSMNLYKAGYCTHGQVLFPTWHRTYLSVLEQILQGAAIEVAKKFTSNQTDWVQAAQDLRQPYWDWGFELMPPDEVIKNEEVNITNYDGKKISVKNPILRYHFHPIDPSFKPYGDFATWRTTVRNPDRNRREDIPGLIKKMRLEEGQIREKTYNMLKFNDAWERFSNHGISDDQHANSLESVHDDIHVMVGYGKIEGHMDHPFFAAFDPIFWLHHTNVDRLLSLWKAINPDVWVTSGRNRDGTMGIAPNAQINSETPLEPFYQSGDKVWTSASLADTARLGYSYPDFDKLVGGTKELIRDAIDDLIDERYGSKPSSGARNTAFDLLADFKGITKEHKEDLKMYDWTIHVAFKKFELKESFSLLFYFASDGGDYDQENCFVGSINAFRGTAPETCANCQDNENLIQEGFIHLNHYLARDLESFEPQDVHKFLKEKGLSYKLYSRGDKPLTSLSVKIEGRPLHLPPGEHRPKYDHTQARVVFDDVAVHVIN
Activity [2],fold change (FC) [3],Activity [5],Activity [6],inhibition [7],inhibition [8],Compound,Ka [1],KA [4],Activity [9],inhibition [10],IC50 (Mushroom tyrosinase),Ki (Mushroom tyrosinase),K [11],Activity [12],Activity [13],Activity [14],inhibition [15],Vmax (O=C(O)/C=C/c1ccccc1),Vmax (O=C(O)c1ccccc1C(=O)O)
Active,2,Active,Active,Active,Active,O=C(O)/C=C/c1ccccc1,185 mM⁻¹,5.41 µM,–,–,–,–,–,–,–,–,–,–,–
–,–,–,–,–,–,O=C(O)c1ccccc1C(=O)O [PHTHALIC ACID],91.3 mM⁻¹,10.9 µM,Active,Active,271.79 µM,100 µM,67.2 µM,11 to 23%,Active,Active,Active,–,–
–,–,–,–,–,–,Mushroom tyrosinase (Agaricus bisporus) (from UniProt O42713+Q00024+C7FF04+C7FF05),–,–,–,–,–,–,–,–,–,–,–,7.9 µM/min,14.5 µM/min
